Several values for one entry are separate records, joined by “and”; a condition that tells them apart may be missing. Equal values may be shown once. Read-outs that look alike come from different tables or passages of the source.
What was measured:
human recombinant ALR2 = human recombinant ALR2 (Homo sapiens, UniProt P15121); assay: ALR2 enzyme inhibition assay (NADPH oxidation, D,L-glyceraldehyde substrate); type: biochemical
Procedure: (§1) All the title compounds were tested for their inhibitory activity against human recombinant ALR2.
(§2) The ALR2 inhibition activity was evaluated in a mixture of reaction with 50 μL NADPH (0.1 mM), 50 μL sodium phosphate buffer (pH = 6.2, 100 mM), 50 μL human recombinant ALR2, 1 μL dimethyl sulfoxide (DMSO) as solvent, and 50 μL D,L-glyceraldehyde (10 mM) which served as a substrate. […] Before the substrate was added, the mixture was incubated at 30 °C for 3 min, then the reaction was started when the substrate was added, and was monitored for 4 min.
(§3) The inhibitory activities of the title synthetic compounds against ALR2 and ALR1 were examined by adding 1 μL of the inhibitor solution to the ALR2 or ALR1 mixtures. All compounds were dissolved in DMSO, and the solutions were diluted with DMSO to desirable concentrations. To correct for the nonenzymatic oxidation of NADPH, the rate of NADPH oxidation in the presence of all of the reaction mixture components except the substrate was subtracted from each experimental rate. […] The inhibitory rates of tested compounds were calculated by equation as follows:Inhibitory rate (%) = (1 − ∆Asample/∆AE+DMSO) × 100%(1) sample = enzyme + compound + DMSO(2) E + DMSO = enzyme + DMSO(3)
(§4) The experiments were performed in triplicate.

[1] = tested on: lipid peroxidation in rat brain homogenate; assay: Lipid peroxidation suppression (TBARS/MDA) in rat brain homogenate induced by Fe(III)/ascorbic acid; type: biochemical; settings: tested in concentration of 100 μM, n = 3
Source text: Lipid peroxidation reactions involve free radical attacks on unsaturated fatty acid, producing free radicals and lipid peroxides which eventually harm the organism and usually decompose to form poisonous malonaldehyde (MDA). Thiobarbituric acid reactive substances (TBARS), which generated from the condensation of thiobarbituric acid and malondialdehyde, are considered as key biomarkers to determine the level of lipid peroxidation. For further identification that the derivatives tested in DPPH scavenging assay can be effective in heterogeneous oxidative pathway, the suppression effect of compounds on the hydroxyl radical-dependent lipoperoxidation in rat brain homogenate oxidant system which induced by Fe(III)/ascorbic acid was also evaluated.
Compounds 7a, 7c, 7g and 7k–l that were already described in the DPPH radical scavenging activity were investigated in the suppression of lipid peroxidation (Table 3).
(§5) Antioxidant assays were performed with the similar protocol as described previously.

[2] = DPPH radical scavenging assay; settings: n = 3
Procedure: In this part, the antioxidant activity was measured by an intrinsic chemical reactivity toward radicals, in a homogeneous reaction system of the methanol solution of 1,1-diphenyl-2-trinitrophenylhydrazine (DPPH) (0.2 mM), and 6-hydroxy-2,5,7,8-tetramethyl- chroman-2-carboxylic acid (Trolox) served as a reference compound.
as §5

human recombinant ALR1 = target: T1, human recombinant ALR1 (Homo sapiens, UniProt P14550); assay: ALR1 enzyme inhibition assay (NADPH oxidation, sodium D-gluconate substrate); type: biochemical; settings: for inhibition at 100 µM: read-out: ALR1 Inh. %; for SI: selectivity index, defined as IC50[ALR1]: IC50[ALR2]
T1 sequence (P14550 1-325): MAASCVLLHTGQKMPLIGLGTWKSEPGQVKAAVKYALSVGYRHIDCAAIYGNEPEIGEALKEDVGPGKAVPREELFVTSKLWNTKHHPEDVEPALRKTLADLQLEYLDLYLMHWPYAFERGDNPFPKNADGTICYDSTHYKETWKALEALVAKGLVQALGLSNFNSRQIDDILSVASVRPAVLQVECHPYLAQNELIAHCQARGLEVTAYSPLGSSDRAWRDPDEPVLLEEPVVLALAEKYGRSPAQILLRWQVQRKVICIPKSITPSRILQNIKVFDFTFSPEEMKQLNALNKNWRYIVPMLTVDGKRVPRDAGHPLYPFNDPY
Procedure: as §1
as §2, with “min. The ALR1 inhibition activity experiment was conducted at 37 °C in the mixture containing 50 μL NADPH (0.12 mM), 50 μL human recombinant ALR1, 50 μL sodium phosphate buffer (pH = 7.2, 100 mM), 50 μL sodium […] (20 mM) as a substrate, and 1 μL DMSO as solvent. Before the substrate sodium […] was added, the mixture was incubated at 37 °C for 3 min, then the substrate was added to start the reaction, which was monitored for 4 min.” for “min.”
as §3, with “rate. The title compounds were tested at concentrations ranging from 100 μM to 1 μM, except compound 7l which were tested 10 μM to 0.1 μM.” for “rate.”
as §4

[3] = set-up: method as in Lewis F. W. et al [36]; settings: 100 μM column; ref Lewis F. W. et al [36]; cited from earlier work
[4] = tested on: lipid peroxidation in rat brain homogenate; set-up: method as in Chaves S. et al. [37]; settings: ref Chaves S. et al. [37]; cited from earlier work
[5] = n = 3, mean ± SD, read-out: IC50 for ALR2
[6] = raw data, average of three replicates, unit not given (molar scale), read-out: IC50 average (ALR2)
[7] = raw data, single replicate, unit not given (molar scale by log(dose)), read-out: IC50 (ALR2)
[8] = tested in concentration of 100 μM, n = 3

SMILES	IC50 (human recombinant ALR2; [5]) [µM]	IC50 (human recombinant ALR2; [6]) [µM]	IC50 (human recombinant ALR2; [7])	IC50 (human recombinant ALR1; n = 3) [µM]	inhibition at 100 µM (human recombinant ALR1; [8]) [%]	MDA inh. % [1] [%]	% of Inhibition of Control Value (DPPH) ([2]; 100 μM) [%]	also measured
O=C(O)Cn1cc(O)c(=O)cc1C=Cc1ccc(F)c(F)c1 [7g, {2-[2-(3,4-Difluoro-phenyl)-vinyl]-5-hydroxy-4-oxo-4H-pyridin-1-yl}-acetic acid]	2.11 ± 0.34	2.11	2.52 µM and 2.11 µM and 1.7 µM	> 100	35.8 ± 3.23	55.02 ± 3.00	28.50 ± 0.95	–
COc1ccc(C=Cc2cc(=O)c(O)cn2CC(=O)O)cc1OC [7e, {2-[2-(3,4-Dimethoxy-phenyl)-vinyl]-5-hydroxy-4-oxo-4H-pyridin-1-yl}-acetic acid]	9.56 ± 0.98	9.56	9.61 µM and 8.33 µM and 10.7 µM	–	–	–	–	–
CC(/C=C1\SC(=S)N(CC(=O)O)C1=O)=C\c1ccccc1 [epalrestat, reference compound]	–	–	–	3.56 ± 0.18	–	–	–	inhibition at 100 µM (human recombinant ALR1): 80.8 ± 3.74%
Cc1c(O)c(=O)ccn1C [Deferiprone, 3-hydroxy-1,2-dimethyl-1H-pyridin-4-one]	–	–	–	–	–	–	–	% of Inhibition of Control Value (DPPH) [3]: 63%; MDA inh. % [4]: 25%
O=C(O)Cn1cc(O)c(=O)cc1C=Cc1ccc(O)c(O)c1 [7l, {2-[2-(3,4-Dihydroxy-phenyl)-vinyl]-5-hydroxy-4-oxo-4H-pyridin-1-yl}-acetic acid]	0.789 ± 0.183	0.789	0.916 µM and 0.921 µM and 0.53 µM	19.9 ± 1.72	80 ± 3.59	88.76 ± 2.04	97.96 ± 0.36	% of Inhibition of Control Value (DPPH) ([2]; 1 μM): 41.48 ± 0.95%; % of Inhibition of Control Value (DPPH) ([2]; 5 μM): 67.18 ± 0.62%; % of Inhibition of Control Value (DPPH) ([2]; 10 μM): 82.44 ± 1.65%; SI (human recombinant ALR1): 25.23
O=C(O)Cn1cc(O)c(=O)cc1C=Cc1ccccc1 [7a, (5-Hydroxy-4-oxo-2-styryl-4H-pyridin-1-yl)-acetic acid]	8.41 ± 0.63	8.41	7.85 µM and 8.09 µM and 9.28 µM	> 100	38.8 ± 1.75	19.28 ± 0.98	22.90 ± 3.30	melting point: 254 to 255 °C
Cc1c(C)c2c(c(C)c1O)CCC(C)(C(=O)O)O2 (stereo not drawn) [Trolox, 6-hydroxy-2,5,7,8-tetramethyl-chroman-2-carboxylic acid, reference compound]	–	–	–	–	–	74.82 ± 1.82	92.32 ± 0.19	% of Inhibition of Control Value (DPPH) ([2]; 1 μM): 11.89 ± 1.39%; % of Inhibition of Control Value (DPPH) ([2]; 5 μM): 45.53 ± 1.12%; % of Inhibition of Control Value (DPPH) ([2]; 10 μM): 80.33 ± 1.22%

Now from value to compound, other results behind:

IC50 (human recombinant ALR2; [5]) [µM]	IC50 (human recombinant ALR2; [6]) [µM]	IC50 (human recombinant ALR2; [7])	IC50 (human recombinant ALR1; n = 3) [µM]	inhibition at 100 µM (human recombinant ALR1; [8]) [%]	SMILES	MDA inh. % [1] [%]	% of Inhibition of Control Value (DPPH) ([2]; 100 μM) [%]	also measured
6.78 ± 0.91	6.78	5.7 µM and 7.92 µM and 6.7 µM	–	–	COc1ccc(C=Cc2cc(=O)c(O)cn2CC(=O)O)cc1 [7d, {5-Hydroxy-2-[2-(4-methoxy-phenyl)-vinyl]-4-oxo-4H-pyridin-1-yl}-acetic acid]	–	–	I% (ALR2 inhibitory rate) (human recombinant ALR2; raw data, single replicate, log(dose) -5): 54.7%
2.98 ± 0.73	2.98	2.06 µM and 3.03 µM and 3.84 µM	> 100	49.41 ± 0.45	CC(C)(C)c1ccc(C=Cc2cc(=O)c(O)cn2CC(=O)O)cc1 [7c, {2-[2-(4-tert-Butyl-phenyl)-vinyl]-5-hydroxy-4-oxo-4H-pyridin-1-yl}-acetic acid]	26.10 ± 1.06	25.44 ± 2.36	–
10.7 ± 1.47	10.7	8.88 µM and 10.8 µM and 12.5 µM	–	–	O=C(O)Cn1cc(O)c(=O)cc1C=Cc1ccc(C(F)(F)F)cc1 [7h, {5-Hydroxy-4-oxo-2-[2-(4-trifluoromethyl-phenyl)-vinyl]-4H-pyridin-1-yl}-acetic acid]	–	–	–
5.3 ± 0.6	5.3	4.48 µM and 5.49 µM and 5.91 µM	–	–	Cc1ccc(C=Cc2cc(=O)c(O)cn2CC(=O)O)cc1 [7b, [5-Hydroxy-4-oxo-2-(2-p-tolyl-vinyl)-4H-pyridin-1-yl]-acetic acid]	–	–	melting point: 256 to 257 °C
8.19 ± 0.43	8.19	8.07 µM and 7.74 µM and 8.76 µM	–	–	Nc1ccc(C=Cc2cc(=O)c(O)cn2CC(=O)O)cc1 [7j, {2-[2-(4-Amino-phenyl)-vinyl]-5-hydroxy-4-oxo-4H-pyridin-1-yl}-acetic acid]	–	–	–
6.64 ± 2.39	6.64	4.52 µM and 9.99 µM and 5.42 µM	–	–	O=C(O)Cn1cc(O)c(=O)cc1C=Cc1ccc(F)cc1 [7f, {2-[2-(4-Fluoro-phenyl)-vinyl]-5-hydroxy-4-oxo-4H-pyridin-1-yl}-acetic acid]	–	–	–
2.36 ± 0.42	–	2.63 µM and 1.86 µM and 2.86 µM	15 ± 0.54	75.8 ± 2.34	O=C(O)Cn1cc(O)c(=O)cc1C=Cc1ccc(O)cc1 [7k, {5-Hydroxy-2-[2-(4-hydroxy-phenyl)-vinyl]-4-oxo-4H-pyridin-1-yl}-acetic acid]	90.73 ± 3.97	96.69 ± 0.72	% of Inhibition of Control Value (DPPH) ([2]; 1 μM): 33.08 ± 0.72%; % of Inhibition of Control Value (DPPH) ([2]; 5 μM): 72.01 ± 1.80%; % of Inhibition of Control Value (DPPH) ([2]; 10 μM): 89.31 ± 0.62%; SI (human recombinant ALR1): 6.36
17.1 ± 2.3	17.1	16.1 µM and 20.3 µM and 15 µM	–	–	CS(=O)(=O)c1ccc(C=Cc2cc(=O)c(O)cn2CC(=O)O)cc1 [7i, {5-Hydroxy-2-[2-(4-methanesulfonyl-phenyl)-vinyl]-4-oxo-4H-pyridin-1-yl}-acetic acid]	–	–	–
